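96-well plates; 48 h exposure; 5 concentrations. Endpoints by linear interpolation between flanking doses. Not reached: highest tested concentration assigned. GI50 marks 50% less growth. The concentration for full growth arrest is given as TGI.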
Tests used:
Test in all cases: inhibition of tumour cell growth, NCI panel, 48 h
MDA-MB-435 = system: MDA-MB-435
RPMI-8226 leukemia = system: RPMI-8226 leukemia
NCI-H460 lung = system: NCI-H460 lung
M14 melanoma = system: M14 melanoma
NCI-H522 lung = system: NCI-H522 lung
SW-620 colon = system: SW-620 colon
SR leukemia = system: SR leukemia
IGROV1 ovarian = system: IGROV1 ovarian
OVCAR-4 ovarian = system: OVCAR-4 ovarian
RXF 393 renal = system: RXF 393 renal
HCT-116 colon = system: HCT-116 colon
UO-31 renal = system: UO-31 renal
DU-145 prostate = system: DU-145 prostate
LOX IMVI melanoma = system: LOX IMVI melanoma
HL-60(TB) leukemia = system: HL-60(TB) leukemia
OVCAR-5 ovarian = system: OVCAR-5 ovarian
COLO 205 colon = system: COLO 205 colon
ACHN renal = system: ACHN renal
U251 CNS = system: U251 CNS
MCF7 breast = system: MCF7 breast
SNB-19 CNS = system: SNB-19 CNS
A498 renal = system: A498 renal
CAKI-1 renal = system: CAKI-1 renal
K-562 leukemia = system: K-562 leukemia
786-0 renal = system: 786-0 renal
CCRF-CEM leukemia = system: CCRF-CEM leukemia
SN12C renal = system: SN12C renal
MDA-MB-231 breast = system: MDA-MB-231 breast
HOP-62 NSCLC = system: HOP-62 NSCLC
HCT-15 colon = system: HCT-15 colon
SNB-75 CNS = system: SNB-75 CNS
PC-3 prostate = system: PC-3 prostate
NCI-H226 lung = system: NCI-H226 lung
OVCAR-8 ovarian = system: OVCAR-8 ovarian
HCC-2998 colon = system: HCC-2998 colon
HT29 colon = system: HT29 colon
NCI/ADR-RES ovarian = system: NCI/ADR-RES ovarian
TK-10 renal = system: TK-10 renal
SF-268 CNS = system: SF-268 CNS
UACC-62 melanoma = system: UACC-62 melanoma
SK-MEL-2 melanoma = system: SK-MEL-2 melanoma
MOLT-4 leukemia = system: MOLT-4 leukemia
HS 578T breast = system: HS 578T breast
SF-295 CNS = system: SF-295 CNS
UACC-257 melanoma = system: UACC-257 melanoma
T-47D breast = system: T-47D breast
NCI-H23 lung = system: NCI-H23 lung
SK-MEL-5 melanoma = system: SK-MEL-5 melanoma
KM12 colon = system: KM12 colon
HOP-92 NSCLC = system: HOP-92 NSCLC
MALME-3M melanoma = system: MALME-3M melanoma
SK-MEL-28 melanoma = system: SK-MEL-28 melanoma
SK-OV-3 ovarian = system: SK-OV-3 ovarian
SF-539 CNS = system: SF-539 CNS
OVCAR-3 ovarian = system: OVCAR-3 ovarian
BT-549 breast = system: BT-549 breast
A549 NSCLC = system: A549 NSCLC

Question: For `Cn1nc(C(F)(F)F)c(-c2cc(C(F)(F)F)cc(C(F)(F)F)c2)c1-c1ccc(OCc2ccc(Cl)cc2)cc1O`, which GI50 (MDA-MB-435) is on record?
Answer: 2.54 µM

Question: And the TGI (MDA-MB-435)?
Answer: 8.03 µM

Question: What about the GI50 (RPMI-8226 leukemia) of the same compound?
Answer: 2.26 µM

Question: What about the TGI (RPMI-8226 leukemia) of the same compound?
Answer: 7.22 µM

Question: And the GI50 (NCI-H460 lung)?
Answer: 2.16 µM

Question: What about the TGI (NCI-H460 lung) of the same compound?
Answer: 5.5 µM

Question: What about the GI50 (M14 melanoma) of the same compound?
Answer: 2.07 µM

Question: And the TGI (M14 melanoma)?
Answer: 5.27 µM

Question: And the GI50 (NCI-H522 lung)?
Answer: 1.94 µM

Question: And the TGI (NCI-H522 lung)?
Answer: 9.16 µM

Question: And the GI50 (SW-620 colon)?
Answer: 3 µM

Question: And the TGI (SW-620 colon)?
Answer: 11 µM

Question: What about the GI50 (SR leukemia) of the same compound?
Answer: 1.79 µM

Question: And the TGI (SR leukemia)?
Answer: 7.51 µM

Question: And the GI50 (IGROV1 ovarian)?
Answer: 2.71 µM

Question: What about the TGI (IGROV1 ovarian) of the same compound?
Answer: 12.5 µM

Question: And the GI50 (OVCAR-4 ovarian)?
Answer: 2.68 µM

Question: And the TGI (OVCAR-4 ovarian)?
Answer: 13.3 µM

Question: What about the GI50 (RXF 393 renal) of the same compound?
Answer: 2.32 µM

Question: What about the TGI (RXF 393 renal) of the same compound?
Answer: 6.76 µM

Question: What about the GI50 (HCT-116 colon) of the same compound?
Answer: 1.62 µM

Question: And the TGI (HCT-116 colon)?
Answer: 3.81 µM

Question: What about the GI50 (UO-31 renal) of the same compound?
Answer: 1.89 µM

Question: What about the TGI (UO-31 renal) of the same compound?
Answer: 4.28 µM

Question: What about the GI50 (DU-145 prostate) of the same compound?
Answer: 3.9 µM

Question: What about the TGI (DU-145 prostate) of the same compound?
Answer: 14.8 µM

Question: What about the GI50 (LOX IMVI melanoma) of the same compound?
Answer: 1.98 µM

Question: And the TGI (LOX IMVI melanoma)?
Answer: 4.31 µM

Question: What about the GI50 (HL-60(TB) leukemia) of the same compound?
Answer: 2.08 µM

Question: What about the TGI (HL-60(TB) leukemia) of the same compound?
Answer: 5.57 µM

Question: And the GI50 (OVCAR-5 ovarian)?
Answer: 3.29 µM

Question: And the TGI (OVCAR-5 ovarian)?
Answer: 15 µM

Question: What about the GI50 (COLO 205 colon) of the same compound?
Answer: 1.7 µM

Question: And the TGI (COLO 205 colon)?
Answer: 3.36 µM

Question: And the GI50 (ACHN renal)?
Answer: 2.54 µM

Question: And the TGI (ACHN renal)?
Answer: 10 µM

Question: What about the GI50 (U251 CNS) of the same compound?
Answer: 2.38 µM

Question: And the TGI (U251 CNS)?
Answer: 12.1 µM

Question: What about the GI50 (MCF7 breast) of the same compound?
Answer: 2.23 µM

Question: And the TGI (MCF7 breast)?
Answer: 10.4 µM

Question: What about the GI50 (SNB-19 CNS) of the same compound?
Answer: 2.78 µM

Question: What about the TGI (SNB-19 CNS) of the same compound?
Answer: 14.8 µM

Question: And the GI50 (A498 renal)?
Answer: 1.31 µM

Question: And the TGI (A498 renal)?
Answer: 5.13 µM

Question: What about the GI50 (CAKI-1 renal) of the same compound?
Answer: 2.11 µM

Question: And the TGI (CAKI-1 renal)?
Answer: 5.9 µM

Question: And the GI50 (K-562 leukemia)?
Answer: 0.62 µM

Question: And the TGI (K-562 leukemia)?
Answer: 10.1 µM

Question: And the GI50 (786-0 renal)?
Answer: 1.63 µM

Question: And the TGI (786-0 renal)?
Answer: 3.28 µM

Question: And the GI50 (CCRF-CEM leukemia)?
Answer: 2.26 µM

Question: What about the TGI (CCRF-CEM leukemia) of the same compound?
Answer: 14.9 µM

Question: What about the GI50 (SN12C renal) of the same compound?
Answer: 1.96 µM

Question: And the TGI (SN12C renal)?
Answer: 10.3 µM

Question: And the GI50 (MDA-MB-231 breast)?
Answer: 2.15 µM

Question: And the TGI (MDA-MB-231 breast)?
Answer: 5.69 µM

Question: And the GI50 (HOP-62 NSCLC)?
Answer: 2.82 µM

Question: And the TGI (HOP-62 NSCLC)?
Answer: 8.57 µM

Question: What about the GI50 (HCT-15 colon) of the same compound?
Answer: 2.14 µM

Question: What about the TGI (HCT-15 colon) of the same compound?
Answer: 10.7 µM

Question: And the GI50 (SNB-75 CNS)?
Answer: 2.17 µM

Question: And the TGI (SNB-75 CNS)?
Answer: 10.5 µM

Question: What about the GI50 (PC-3 prostate) of the same compound?
Answer: 1.88 µM

Question: What about the TGI (PC-3 prostate) of the same compound?
Answer: 11.5 µM

Question: What about the GI50 (NCI-H226 lung) of the same compound?
Answer: 2.1 µM

Question: What about the TGI (NCI-H226 lung) of the same compound?
Answer: 5.67 µM

Question: What about the GI50 (OVCAR-8 ovarian) of the same compound?
Answer: 2.92 µM

Question: And the TGI (OVCAR-8 ovarian)?
Answer: 12.1 µM

Question: What about the GI50 (HCC-2998 colon) of the same compound?
Answer: 2.77 µM

Question: What about the TGI (HCC-2998 colon) of the same compound?
Answer: 12.4 µM

Question: And the GI50 (HT29 colon)?
Answer: 2.9 µM

Question: And the TGI (HT29 colon)?
Answer: 10.6 µM

Question: What about the GI50 (NCI/ADR-RES ovarian) of the same compound?
Answer: 2.81 µM

Question: What about the TGI (NCI/ADR-RES ovarian) of the same compound?
Answer: 9.8 µM

Question: What about the GI50 (TK-10 renal) of the same compound?
Answer: 3.11 µM

Question: And the TGI (TK-10 renal)?
Answer: 11.1 µM

Question: What about the GI50 (SF-268 CNS) of the same compound?
Answer: 2.65 µM

Question: And the TGI (SF-268 CNS)?
Answer: 13 µM

Question: What about the GI50 (UACC-62 melanoma) of the same compound?
Answer: 1.45 µM

Question: And the TGI (UACC-62 melanoma)?
Answer: 4.05 µM

Question: And the GI50 (SK-MEL-2 melanoma)?
Answer: 1.73 µM

Question: What about the TGI (SK-MEL-2 melanoma) of the same compound?
Answer: 4.09 µM

Question: What about the GI50 (MOLT-4 leukemia) of the same compound?
Answer: 2.61 µM

Question: And the TGI (MOLT-4 leukemia)?
Answer: 11 µM

Question: And the GI50 (HS 578T breast)?
Answer: 2.19 µM

Question: And the TGI (HS 578T breast)?
Answer: 6.78 µM

Question: And the GI50 (SF-295 CNS)?
Answer: 2.31 µM

Question: And the TGI (SF-295 CNS)?
Answer: 7.3 µM

Question: What about the GI50 (UACC-257 melanoma) of the same compound?
Answer: 2.07 µM

Question: And the TGI (UACC-257 melanoma)?
Answer: 6.11 µM

Question: What about the GI50 (T-47D breast) of the same compound?
Answer: 1.54 µM

Question: What about the TGI (T-47D breast) of the same compound?
Answer: 8.4 µM

Question: What about the GI50 (NCI-H23 lung) of the same compound?
Answer: 1.64 µM

Question: And the TGI (NCI-H23 lung)?
Answer: 6.93 µM

Question: And the GI50 (SK-MEL-5 melanoma)?
Answer: 1.45 µM

Question: And the TGI (SK-MEL-5 melanoma)?
Answer: 3.11 µM

Question: What about the GI50 (KM12 colon) of the same compound?
Answer: 2.64 µM

Question: What about the TGI (KM12 colon) of the same compound?
Answer: 10.7 µM

Question: And the GI50 (HOP-92 NSCLC)?
Answer: 1.63 µM

Question: And the TGI (HOP-92 NSCLC)?
Answer: 5.07 µM

Question: What about the GI50 (MALME-3M melanoma) of the same compound?
Answer: 1.99 µM

Question: And the TGI (MALME-3M melanoma)?
Answer: 5.24 µM

Question: And the GI50 (SK-MEL-28 melanoma)?
Answer: 2.32 µM

Question: And the TGI (SK-MEL-28 melanoma)?
Answer: 10.7 µM

Question: And the GI50 (SK-OV-3 ovarian)?
Answer: 2.82 µM

Question: And the TGI (SK-OV-3 ovarian)?
Answer: 10.1 µM

Question: And the GI50 (SF-539 CNS)?
Answer: 2.1 µM

Question: What about the TGI (SF-539 CNS) of the same compound?
Answer: 5.94 µM

Question: And the GI50 (OVCAR-3 ovarian)?
Answer: 2.27 µM

Question: What about the TGI (OVCAR-3 ovarian) of the same compound?
Answer: 10.7 µM

Question: What about the GI50 (BT-549 breast) of the same compound?
Answer: 1.67 µM

Question: What about the TGI (BT-549 breast) of the same compound?
Answer: 3.33 µM

Question: What about the GI50 (A549 NSCLC) of the same compound?
Answer: 3.18 µM

Question: And the TGI (A549 NSCLC)?
Answer: 11.7 µM

Reference: PubChem BioAssay (NCI)
